Results reported in patent US10619210B2, “Predicting response to epigenetic drug therapy” (THE JOHNS HOPKINS UNIVERSITY, priority 2014, dated 2020).

What was measured:
Assay type in all cases: cell-based, human
colon cancer cell lines = assay: AIM gene expression in colon cancer cell lines after TSA; settings: six colon cancer cell lines, 300 nM TSA for 18 hours
Procedure: (§1) FIG. 9A-9D. AIM genes are induced by TSA but not by chemotherapeutic agents. […] FIG. 9B: Box plots of AIM genes after TSA treatment. FIG. 9C: Box plots of AIM genes in DKO cells compared to the parent HCT116 cell line. The orange lines indicate 2 fold change. FIG. 9D: A2780 ovarian cancer cells were treated with 500 nM AZA or carboplatin for 72 hours, then allowed to recover for 7 days without drug before RNA was isolated. qRT-PCR was performed for IFI27, IL-15, IRF7, and MAGEB2 genes. Blue bars indicate Mock treatment, purple indicate AZA, and orange indicate carboplatin. Fold change is plotted on the Y axis. Each bar represents the average and standard deviation of three biological replicates.
It is especially noteworthy that the DKO cell line (haplo-insufficient for DNMT1 and null for DNMT3B), which is shown as a genetic mimic of AZA treatment (FIG. 2B, FIG. 7) induces significant upregulation for most AIM genes (FIG. 9A, C). To determine whether this was specific to DNMT inhibitors, we also treated cells with an HDAC inhibitor (TSA) that has been used extensively in our laboratory. […] This activation appears to be in response to epigenetic agents and not the result of a general cell stress response that could be elicited by chemotherapeutics such as carboplatin.

[1] = system: A2780 ovarian cancer cells; assay: qRT-PCR of AIM genes in A2780 after AZA or carboplatin; settings: 500 nM for 72 hours, then 7 days recovery without drug
Procedure: as §1, with “replicates. […]” for “replicates.”
After total cellular RNA was extracted using the Trizol method (Life Technologies, Carlsbad, Calif.), RNA concentration was determined using the Nanodrop machine and software (Thermo Fisher Scientific, Rockville, Md.). 1 μg total RNA was used to generate cDNA with the QuantiTect Reverse Transcription Kit (Qiagen, Venlo, Netherlands). Quantitative reverse transcription PCR (q-RT-PCR) of CD274, DDX58, HLA-C, IFI6, IFI27, IL-15, IRF7, IRF9, MAEL, and MAGEB2 mRNA was performed using TaqMan assays (Life Technologies, Carlsbad, Calif.) and the Applied Biosystems 7500 Fast real-time PCR system and software. […]

[2] = system: ovarian cancer cell lines; assay: GSEA of Agilent 44K expression arrays after low-dose AZA, ovarian cancer cell lines
Procedure: (§2) In the context of the above background, we explored further our understanding of the global pathway changes after treatment with low doses of the DNMTi AZA in cell lines from multiple common human cancers. A total of 63 cancer cell lines (26 breast, 14 colorectal, and 23 ovarian) were treated with low dose, 500 nM, AZA for three days. DNA and RNA were isolated at multiple time points following initial drug application and analyzed for genome-wide changes in DNA methylation and gene expression (Agilent 44K Expression Array). […] These gene sets could be broadly divided into four categories including cell cycle control (cell cycle, mitosis, meiosis), DNA replication (DNA replication and packaging, transcription), mRNA splicing and translation, and immune response (FIG. 1C,D; Tables 2 and 3). […] See also FIG. 1A. […] See also FIG. 1B. […]
(§3) All data were analyzed using R: A Language and Environment for Statistical Computing. […] These normalized values were then analyzed utilizing the Gene Set Enrichment Analysis by the Broad Institute and data packages (C5BP, Reactome, KEGG). […] TCGA HumanMethylation27K level 3 data was downloaded, standard deviation of Infinium β-values across all primary cancer samples were calculated, and the top one thousand most variable probes were chosen for hierarchical cluster analysis. […]

lung cancer cell lines = assay: GSEA of lung cancer cell lines treated with the same AZA dosing schedule; settings: 14 lung cancer cell lines
[3] = system: ovarian cancer cell lines; assay: AZA-induced immune gene demethylation and re-expression, ovarian cancer cell lines
Description: (§4) The canonical effects of AZA have traditionally been described as demethylation of promoter regions and subsequent expression of the silenced gene. Many of the pathway changes in response to AZA, such as increased expression of immune genes, may be the result of downstream events elicited by a small number of hubs related to promoter DNA demethylation and associated gene upregulation. We investigated hub networks in our current pan-cancer analyses by first searching, in a genome-wide analysis using the Infinium 450K methylation platform, for genes that have AZA-induced demethylation of cancer-specific, DNA hypermethylated, CpG islands associated with proximal promoter regions. The total number of such demethylated genes in the cell lines from breast, ovarian and colorectal cancers was 162 (FIG. 8A). […]
as §3

[4] = system: 63 cancer cell lines (26 breast, 14 colorectal, and 23 ovarian); assay: GSEA gene sets common to 63 cancer cell lines (breast, colorectal, ovarian) after AZA
Procedure: In the context of the above background, we explored further our understanding of the global pathway changes after treatment with low doses of the DNMTi AZA in cell lines from multiple common human cancers. A total of 63 cancer cell lines (26 breast, 14 colorectal, and 23 ovarian) were treated with low dose, 500 nM, AZA for three days. DNA and RNA were isolated at multiple time points following initial drug application and analyzed for genome-wide changes in DNA methylation and gene expression (Agilent 44K Expression Array). […] These gene sets could be broadly divided into four categories including cell cycle control (cell cycle, mitosis, meiosis), DNA replication (DNA replication and packaging, transcription), mRNA splicing and translation, and immune response (FIG. 1C,D; Tables 2 and 3). […] See also FIG. 1A. […] See also FIG. 1B.
63 cell lines (26 breast cancer, 14 colorectal cancer, 23 ovarian cancer) were used in these experiments. Breast cell lines included BT20, BT474, CAMA1, EFM19, MDA453, MDA468, MDA361, MCF7, MDA231, T47D, HCC1500, and HCC1187 obtained from the American Type Tissue Collection; HCC1419, HCC38, EFM192A, HCC1569, HCC1937, HCC1954, MDA175, MDA415, MDA436, SUM149, SUM159, SKBR3, ZR751, and ZR7530 from Dr. Dennis Slamon. All cells were maintained under recommended conditions. Colorectal cell lines were all obtained from the American Type Tissue Collection and were maintained under recommended conditions. These included CACO-2, Colo201, Colo205, Colo320, DLD1, HCT116, HT29, Lovo, RKO, SK-CO1, SNUC-1, SW48, SW480, and SW620. Ovarian cell lines were obtained from the laboratory of Dr. Dennis Slamon and included A2780, CAOV3, DOV13, EFO27, ES2, Hey, HEYC2, Kuramochi, OAW28, OAW42, OV167, OV2008, OV90, OVCA429, OVCA432, OVMANA, OVCAR3, OVCAR5, OVKATE, PEO14, SKOV3, TOV112D, and TykNu; these were maintained under the ATCC recommended conditions.
Cell lines were treated with 500 nM of AZA or carboplatin (Sigma; St. Louis, Mo.) for 72 hours while in log-growth phase, changing the media and drug every 24 hours for AZA treatment. To select an appropriate chemotherapy control, the carboplatin dose that had the similar growth inhibitory effect to 500 nM AZA after 10 days was selected. Cells were harvested at 1, 3, 7, 10, 14, 21, or 28 days following initial application of drug. […]
as §3

breast cancer cell lines [5] = assay: GSEA of Agilent 44K expression arrays after low-dose AZA, breast cancer cell lines
Procedure: as §2, §3

breast cancer cell lines [6] = assay: AZA-induced immune gene demethylation and re-expression, breast cancer cell lines
Description: as §4, §3

[7] = system: HCC1569, ZR751, COLO201, HT29, A2780 and TYKNU cells; assay: qRT-PCR validation of AIM genes in two cell lines from each cancer type; settings: two cell lines per cancer type
Procedure: After total cellular RNA was extracted using the Trizol method (Life Technologies, Carlsbad, Calif.), RNA concentration was determined using the Nanodrop machine and software (Thermo Fisher Scientific, Rockville, Md.). 1 μg total RNA was used to generate cDNA with the QuantiTect Reverse Transcription Kit (Qiagen, Venlo, Netherlands). Quantitative reverse transcription PCR (q-RT-PCR) of CD274, DDX58, HLA-C, IFI6, IFI27, IL-15, IRF7, IRF9, MAEL, and MAGEB2 mRNA was performed using TaqMan assays (Life Technologies, Carlsbad, Calif.) and the Applied Biosystems 7500 Fast real-time PCR system and software. Human β-actin mRNA was used as the endogenous control. The ΔΔCT method was used to calculate relative expression levels. All qRT-PCR assays were carried out in triplicate and then repeated with new cDNA synthesis. Minus RT controls (reverse transcriptase negative cDNA synthesis reactions) were performed for at least one sample per plate.

[8] = system: colorectal cancer cell lines; assay: AZA-induced immune gene demethylation and re-expression, colorectal cancer cell lines
Description: as §4, §3

[9] = system: colorectal cancer cell lines; assay: GSEA of Agilent 44K expression arrays after low-dose AZA, colorectal cancer cell lines
Procedure: as §2, §3

[10] = system: cell lines from breast, ovarian and colorectal cancers; assay: AZA-induced promoter CpG island demethylation and re-expression (Infinium 450K), all three cancer types
Description: The canonical effects of AZA have traditionally been described as demethylation of promoter regions and subsequent expression of the silenced gene. Many of the pathway changes in response to AZA, such as increased expression of immune genes, may be the result of downstream events elicited by a small number of hubs related to promoter DNA demethylation and associated gene upregulation. We investigated hub networks in our current pan-cancer analyses by first searching, in a genome-wide analysis using the Infinium 450K methylation platform, for genes that have AZA-induced demethylation of cancer-specific, DNA hypermethylated, CpG islands associated with proximal promoter regions. The total number of such demethylated genes in the cell lines from breast, ovarian and colorectal cancers was 162 (FIG. 8A). […] The highest percentages of these demethylation and re-expression events were again seen in immune genes; 26%, of the 162 genes were categorized as immune related (FIG. 8B,C). Overall, immune gene demethylation and re-expression was again highest in ovarian cancer cell lines (53.8%) followed by colorectal (42.8%) and breast (30.7%) cancer cell lines (FIG. 8B). Of note, amongst these 162 genes, 8 (4.9%) were also in our AIM gene set (BNIP3, HERC5, ICAM1, IRF7, MX1, MST1R, PSMB8, TCRIG1) with IRF7, a member of the interferon regulatory factor family of transcription factors in particular being notable for being a canonical demethylated and reexpressed gene.
Cell lines were treated with 500 nM of AZA or carboplatin (Sigma; St. Louis, Mo.) for 72 hours while in log-growth phase, changing the media and drug every 24 hours for AZA treatment. To select an appropriate chemotherapy control, the carboplatin dose that had the similar growth inhibitory effect to 500 nM AZA after 10 days was selected. Cells were harvested at 1, 3, 7, 10, 14, 21, or 28 days following initial application of drug. DNA and RNA were obtained using standard protocols. RNA from 63 cell lines was sent for the Agilent 44K Expression Array and DNA from 53 cell lines was sent for the Illumina 450K Methylation Array.
All data were analyzed using R: A Language and Environment for Statistical Computing. Expression normalization of cell line data was performed using the package Limma as previously described. Data was normalized within each tumor type (breast, colorectal, and ovarian). These normalized values were then analyzed utilizing the Gene Set Enrichment Analysis by the Broad Institute and data packages (C5BP, Reactome, KEGG). […] TCGA HumanMethylation27K level 3 data was downloaded, standard deviation of Infinium β-values across all primary cancer samples were calculated, and the top one thousand most variable probes were chosen for hierarchical cluster analysis. […]

[11] = 500 nM AZA for three days, NES>2.15, FDR<0.25

CC(/C=C/C(=O)NO)=C\[C@@H](C)C(=O)c1ccc(N(C)C)cc1 [TSA]
regulation of AIM genes (colon cancer cell lines): regulates subsets of AIM genes but not as uniformly or robustly as DKO cells or AZA treated cells

N.N.O=C([O-])C1(C(=O)[O-])CCC1.[Pt+2] [carboplatin]
expression of AIM genes IFI27, IRF7, IL15, MAGEB2 (qRT-PCR) [1]: does not lead to overexpression

Nc1ncn([C@@H]2O[C@H](CO)[C@@H](O)[C@H]2O)c(=O)n1 [AZA, 5-azacitidine]
Overall immune pathway upregulation (percent of upregulated GSEA gene sets that are immune-related) ([2]; ovarian cancers, 500 nM AZA for three days, NES>2.15, FDR<0.25): 31.3%
upregulation of cancer testis antigens gene set (percent of cell lines) ([2]; ovarian, GSEA NES>2.15, FDR<0.25): 39.1%
gene sets common to breast, colon, and ovarian cell lines also upregulated in the lung cancer cell lines (76/80) (lung cancer cell lines): 95%
significantly upregulated pathways that were immune related (lung cancer cell lines): 23.3%
immune gene demethylation and re-expression (percent of cell lines) [3]: 53.8%
immune gene sets showing upregulation by AZA (15/16 gene sets) ([4]; 500 nM AZA for three days): 93.7%
downregulated GSEA gene sets common between the three cancer types ([4]; 500 nM AZA for three days, NES<-2.15, FDR<0.25): 52 gene sets
upregulated GSEA gene sets common between the three cancer types [4, 11]: 80 gene sets
enrichment for immunomodulatory pathways in all three cancers ([4]; range over breast, colorectal, ovarian): 14.4-31.3%
Overall immune pathway upregulation (percent of upregulated GSEA gene sets that are immune-related) (breast cancer cell lines [5]; [11]): 16.9%
upregulation of cancer testis antigens gene set (percent of cell lines) (breast cancer cell lines [5]; GSEA NES>2.15, FDR<0.25): 19.2%
immune gene demethylation and re-expression (percent of cell lines) (breast cancer cell lines [6]): 30.7%
qRT-PCR validation of AZA-induced re-expression of selected AIM (interferon response) genes [7]: Each chosen gene validated
qRT-PCR validation of upregulation of selected antigen presentation pathway genes [7]: validated
immune gene demethylation and re-expression (percent of cell lines) [8]: 42.8%
Overall immune pathway upregulation (percent of upregulated GSEA gene sets that are immune-related) [9, 11]: 14.4%
upregulation of cancer testis antigens gene set (percent of cell lines) ([9]; GSEA NES>2.15, FDR<0.25): 64.3%
expression of AIM genes IFI27, IRF7, IL15, MAGEB2 (qRT-PCR) [1]: increased
share of the 162 demethylated/re-expressed genes categorized as immune related [10]: 26%
subset of the 162 genes showing demethylation and re-expression in all three cancer types [10]: 4.9%
number of the 162 demethylated/re-expressed genes also in AIM gene set ([10]; 8 (4.9%)): 8 genes
total number of demethylated (and re-expressed) genes ([10]; basal β ≥0.5, Δβ(AZA-Mock)≤-0.25, >2-fold expression): 162 genes
